{"source": "patent US5093372A", "about": "“Novel pharmaceutical composition comprising exifone and water-soluble polymer” (Fujisawa Pharmaceutical Co. Inc., priority 1987, dated 1992)", "origin": "cited, not measured here", "key": {"[1]": {"details": "orally administered as a conventional pharmaceutical composition"}}, "data": [{"smiles": "O=C(c1cc(O)c(O)c(O)c1)c1ccc(O)c(O)c1O", "note": "[exifone]", "values": [{"measurement": "solubility in water (in words)", "result": "sparingly soluble in water"}, {"measurement": "saturated solubility in water", "setting": "about", "result": "70 to 80", "unit": "µg/mL"}, {"measurement": "absorption into blood circulation (in words)", "setting": "[1]", "result": "poor"}, {"measurement": "bioavailability (in words)", "setting": "[1]", "result": "low"}]}]}
